Reference: patent US20090099195A1 (ASTRAZENECA AB, priority 2007, published 2009)

How the values were obtained:
[1] = target: T1, rat P2X2/3 (rat P2X3 co-expressed with rat P2X2) (Rattus norvegicus, UniProt P49653+P49654); experiment: rat P2X2/3 FLIPR calcium (Fluo-4) antagonist assay; conditions: Rat P2X2/3 FLIPR Mean IC50 (nM), HEK-TREX cells, tetracycline-induced rat P2X3 with constitutive rat P2X2; agonist 500 nM α,β-methylene-ATP
T1 sequence (P49654 1-397): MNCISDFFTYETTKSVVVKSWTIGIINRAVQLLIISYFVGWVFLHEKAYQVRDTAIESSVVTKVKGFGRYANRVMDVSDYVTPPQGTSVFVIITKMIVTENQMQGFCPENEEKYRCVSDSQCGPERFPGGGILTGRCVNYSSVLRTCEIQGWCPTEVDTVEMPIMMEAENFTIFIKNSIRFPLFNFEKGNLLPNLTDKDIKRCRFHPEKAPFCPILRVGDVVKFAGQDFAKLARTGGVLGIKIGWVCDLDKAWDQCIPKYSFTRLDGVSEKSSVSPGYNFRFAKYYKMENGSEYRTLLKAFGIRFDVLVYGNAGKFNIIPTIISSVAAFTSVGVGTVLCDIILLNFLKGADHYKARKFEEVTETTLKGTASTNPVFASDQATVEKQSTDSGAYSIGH
T1 sequence (P49653 1-472): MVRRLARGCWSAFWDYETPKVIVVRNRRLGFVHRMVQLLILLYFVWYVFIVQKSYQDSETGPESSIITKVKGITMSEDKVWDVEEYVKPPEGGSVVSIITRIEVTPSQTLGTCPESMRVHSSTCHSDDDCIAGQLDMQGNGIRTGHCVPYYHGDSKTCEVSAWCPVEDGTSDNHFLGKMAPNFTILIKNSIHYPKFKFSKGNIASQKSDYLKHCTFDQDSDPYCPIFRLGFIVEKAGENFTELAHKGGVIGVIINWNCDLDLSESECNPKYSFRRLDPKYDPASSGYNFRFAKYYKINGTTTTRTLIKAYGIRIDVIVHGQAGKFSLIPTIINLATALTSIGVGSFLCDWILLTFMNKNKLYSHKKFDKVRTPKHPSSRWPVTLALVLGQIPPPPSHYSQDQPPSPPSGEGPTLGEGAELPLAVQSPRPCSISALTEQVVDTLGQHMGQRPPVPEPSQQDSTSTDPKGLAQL
Procedure: (§1) The assay used a calcium indicator dye (Fluo-4) that emits fluorescence, the intensity of which is related to the concentration of calcium that entered the cell when P2X3 was activated and the channel opened. Activation of hP2X3 or rat P2X3 and rat P2X2/3 (from the coexpression of rat P2X3 and rat P2×2) is elicited the by P2X3 agonist α,β methylene-ATP (Sigma M6517), and the resulting fluorescence is measured with a FLIPR II™ instrument (Molecular Devices). Compounds are tested for their ability to inhibit the agonist-induced fluorescent signal.
(§2) For the rat P2X2/3 HEK-TREX cells, induction of the rat P2X3 expression is used to generate the rat P2X2/3 channels in HEK-TREX cells and performed by addition of 1 μg/mL tetracycline (Invitrogen) 24 h prior to compounds testing to the HEK-TREX expressing the rat P2X2 constitutively. On the day of the experiment, the cells and test compounds are prepared as follows. […] After preparing the compounds, the medium is removed from the cell plates by inversion. A loading solution of 30 μL assay buffer containing 4 μM of the calcium indicator dye FLUO-4 AM (Molecular Probes F14202) is added to each well using a Multidrop (Labsystems). […] The incubation is terminated by washing the cells four times in assay buffer using a Skatron Embla (Molecular Devices), and 25 μL of assay buffer was left in each well. Cell plates are then transferred to the FLIPR. Experiments are initiated by measuring a baseline fluorescence reading for 10 seconds, followed by the addition of 12.5 μL of cpds and data sampling for a total 280 seconds. The experiments are terminated by addition of 12.5 μL of a reference agonist (500 nM α,β-methylene-ATP) or buffer, producing a final assay volume of 50 μL followed by data sampling for an additional 280 seconds.
(§3) In P2X3 antagonist experiments (human and rat assays) data are analysed as normalised maximal peak fluorescence monitored following agonist addition and calculated as percent of relative fluorescent counts from control agonist. The dose-response antagonist inhibition curves are analyzed in a 4-parameter sigmoidal fit using a non-linear curve-fitting program (XLfit version 5.0.6, ID Business Solutions Limited, Guildford, UK).

[2] = target: T2, hP2X3 (human Purinergic P2X receptors subtype 3), clone B (Homo sapiens, UniProt P56373); experiment: hP2X3 FLIPR calcium (Fluo-4) antagonist assay, clone B; conditions: Human P2X3 FLIPR Clone B IC50 (nM), RLE cells expressing hP2X3 clone B (NM_002559); agonist 500 nM α,β-methylene-ATP
T2 sequence (P56373 1-397): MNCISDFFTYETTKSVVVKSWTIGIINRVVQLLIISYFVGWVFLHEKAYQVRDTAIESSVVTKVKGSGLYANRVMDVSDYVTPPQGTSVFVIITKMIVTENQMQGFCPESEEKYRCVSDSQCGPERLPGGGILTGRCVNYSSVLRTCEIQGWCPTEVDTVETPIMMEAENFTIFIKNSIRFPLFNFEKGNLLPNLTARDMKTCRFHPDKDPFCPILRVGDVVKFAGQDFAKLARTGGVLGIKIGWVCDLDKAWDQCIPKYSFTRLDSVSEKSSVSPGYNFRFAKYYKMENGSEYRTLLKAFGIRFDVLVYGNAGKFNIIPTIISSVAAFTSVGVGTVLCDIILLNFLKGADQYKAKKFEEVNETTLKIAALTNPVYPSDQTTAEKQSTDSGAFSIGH

[3] = target: T3, hP2X3 (human Purinergic P2X receptors subtype 3), clone A (Homo sapiens, UniProt P56373); experiment: hP2X3 FLIPR calcium (Fluo-4) antagonist assay, clone A; conditions: Human P2X3 FLIPR Clone A Mean IC50 (nM), RLE cells expressing hP2X3 clone A (AB016608); agonist 500 nM α,β-methylene-ATP
T3 sequence (P56373 1-397): T2 sequence (P56373 1-397)
Procedure: as §1, §2, §3

Row | SMILES | IC50 [1] [nM] | IC50 [2] [nM] | IC50 [3] [nM]
1 | COc1cc(C(F)(F)F)ccc1CNc1nc(N2CCN(C(C)=O)CC2)nc2c1CN(C(C)C)C2=O [Example 225, 2-(4-acetylpiperazin-1-yl)-6-isopropyl-4-(2-methoxy-4-(trifluoromethyl)benzylamino)-5H-pyrrolo[3,4-d]pyrimidin-7(6H)-one] | 60700 | 290 | 
2 | CC(C)N1Cc2c(NC3c4cccnc4CCc4c(F)cccc43)nc(N(C)CCN(C)C)nc2C1=O (stereo not shown) [Example 121, 2-[[2-(dimethylamino)ethyl](methyl)amino]-4-[(9-fluoro-10,11-dihydro-5H-benzo[4,5]cyclohepta[1,2-b]pyridin-5-yl)amino]-6-isopropyl-5,6-dihydro-7H-pyrrolo[3,4-d]pyrimidin-7-one] | 4580 | 150 | 
3 | CC(=O)N1CCN(c2nc(NC(C)c3cnn(-c4ccccc4F)c3)c3c(n2)C(=O)N(C(C)C)C3)CC1 (stereo not shown) [Example 149, 4-(4-acetylpiperazin-1-yl)-2-[1-[1-(2-fluorophenyl)pyrazol-4-yl]ethylamino]-8-propan-2-yl-3,5,8-triazabicyclo[4.3.0]nona-1,3,5-trien-7-one] | 5070 | 260 | 
4 | CC(=O)N1CCN(c2nc3c(c(N4CCCC4c4cc(C)cc(C)c4)n2)CN(C(C)C)C3=O)CC1 (stereo not shown) [Example 270, 4-(4-acetylpiperazin-1-yl)-2-[2-(3,5-dimethylphenyl)pyrrolidin-1-yl]-8-propan-2-yl-3,5,8-triazabicyclo[4.3.0]nona-2,4,10-trien-7-one] | 9910 | 340 | 
5 | CC(=O)N1CCN(c2nc3c(c(N(Cc4cc5ccccc5cn4)CC4CC4)n2)CN(C(C)C)C3=O)CC1 [Example 253, 2-(4-acetylpiperazin-1-yl)-4-((cyclopropylmethyl)(isoquinolin-3-ylmethyl)amino)-6-isopropyl-5H-pyrrolo[3,4-d]pyrimidin-7(6H)-one] | 1110 | 63 | 
6 | CC(=O)N1CCN(c2nc(NC(C)(C)Cc3ccc(F)cc3)c3c(n2)C(=O)N(C(C)C)C3)CC1 [Example 14, 2-(4-acetylpiperazin-1-yl)-4-{[2-(4-fluorophenyl)-1,1-dimethylethyl]amino}-6-isopropyl-5,6-dihydro-7H-pyrrolo[3,4-d]pyrimidin-7-one] | 18500 | 110 | 
7 | CC(=O)N1CCN(c2nc(NC(C)c3cnn(-c4ccccc4)c3)c3c(n2)C(=O)N(C(C)C)C3)CC1 (stereo not shown) [Example 150, 4-(4-acetylpiperazin-1-yl)-2-[1-(1-phenylpyrazol-4-yl)ethylamino]-8-propan-2-yl-3,5,8-triazabicyclo[4.3.0]nona-1,3,5-trien-7-one] | 237 | 60 | 
8 | CC(=O)N1CCN(c2nc(NCc3cc4ccccc4c(N(C)C)n3)c3c(n2)C(=O)N(C(C)C)C3)CC1 [Example 252, 2-(4-acetylpiperazin-1-yl)-4-((1-(dimethylamino)isoquinolin-3-yl)methylamino)-6-isopropyl-5H-pyrrolo[3,4-d]pyrimidin-7(6H)-one] | 2110 | 87 | 
9 | COc1ccc(CC2CCCN2c2nc(N3CCN(C(C)=O)CC3)nc3c2CN(C(C)C)C3=O)cc1 (single isomer, unassigned) [Example 287, 2-(4-acetylpiperazin-1-yl)-6-isopropyl-4-[2-[(4-methoxyphenyl)methyl]pyrrolidin-1-yl]-5H-pyrrolo[3,4-d]pyrimidin-7-one] | 1500 | 53 | 
10 | CC(C)N1Cc2c(NC(C)(C)Cc3ccc(F)cc3)nc(N3CCN4C(=O)CCC4C3)nc2C1=O (stereo not shown) [Example 134, 4-(1-(4-Fluorophenyl)-2-methylpropan-2-ylamino)-6-isopropyl-2-(6-oxohexahydro[1,2-a]pyrazin-2(1H)-yl)-5H-pyrrolo[3,4-d]pyrimidin-7(6H)-one] | 49800 | 490 | 
11 | CCC(C)N1Cc2c(NCc3cnn(-c4ccccc4)c3)nc(N3CCN(C(C)=O)CC3)nc2C1=O (single isomer, unassigned; (-)) [Example 307, (−)-4-(4-acetylpiperazin-1-yl)-8-butan-2-yl-2-[(1-phenylpyrazol-4-yl)methylamino]-3,5,8-triazabicyclo[4.3.0]nona-1,3,5-trien-7-one] | 12000 | 150 | 
12 | CC(=O)N1CCN(c2nc(N[C@H](C)c3cnc4ccccc4c3)c3c(n2)C(=O)N(C(C)C)C3)CC1 (single isomer, unassigned) [Example 344] | 234 | 35 | 
13 | CC(=O)N1CCN(c2nc(NCc3cnn(-c4ccccc4)c3)c3c(n2)C(=O)N(C(C)C)C3)CC1 [Example 146, 4-(4-acetylpiperazin-1-yl)-2-[(1-phenylpyrazol-4-yl)methylamino]-8-propan-2-yl-3,5,8-triazabicyclo[4.3.0]nona-1,3,5-trien-7-one] | 2440 | 67 | 
14 | CC(=O)N1CCN(c2nc3c(c(N4CCCCC4Cc4ccc(F)cc4)n2)CN(C(C)C)C3=O)CC1 (stereo not shown) [Example 268, 4-(4-acetylpiperazin-1-yl)-2-[2-[(4-fluorophenyl)methyl]-1-piperidyl]-8-propan-2-yl-3,5,8-triazabicyclo[4.3.0]nona-1,3,5-trien-7-one] | 12400 | 500 | 
15 | CC(=O)N1CCN(c2nc(NCc3cc(-c4ccccc4)no3)c3c(n2)C(=O)N(C(C)C)C3)CC1 [Example 147, 4-(4-acetylpiperazin-1-yl)-2-[(3-phenyl-1,2-oxazol-5-yl)methylamino]-8-propan-2-yl-3,5,8-triazabicyclo[4.3.0]nona-1,3,5-trien-7-one] | 1230 | 41 | 
16 | CC(=O)N1CCN(c2nc(NCc3ccc4ncccc4c3)c3c(n2)C(=O)N(C(C)C)C3)CC1 [Example 235, 2-(4-acetylpiperazin-1-yl)-6-isopropyl-4-(quinolin-6-ylmethylamino)-5H-pyrrolo[3,4-d]pyrimidin-7(6H)-one] | 13800 | 83 | 
17 | CCOc1ccc(C2CCCN2c2nc(N3CCN(C(C)=O)CC3)nc3c2CN(C(C)C)C3=O)cc1 (stereo not shown) [Example 272, 4-(4-acetylpiperazin-1-yl)-2-[2-(4-ethoxyphenyl)pyrrolidin-1-yl]-8-propan-2-yl-3,5,8-triazabicyclo[4.3.0]nona-2,4,10-trien-7-one] | 12900 | 270 | 
18 | CC(=O)N1CCN(c2nc(NCc3cnc4ccccc4c3)c3c(n2)C(=O)N(C(C)C)C3)CC1C (stereo not shown) [Example 142, 2-(4-Acetyl-3-methyl-piperazin-1-yl)-6-isopropyl-4-[(quinolin-3-ylmethyl)amino]-5,6-dihydro-pyrrolo[3,4-d]pyrimidin-7-one] | 7550 | 57 | 
19 | CC(=O)N1CCN(c2nc(NC(c3ccccc3)c3ccccc3)c3c(n2)C(=O)N(C(C)C)C3)CC1 [Example 72, 2-(4-Acetyl-piperazin-1-yl)-4-(benzhydryl-amino)-6-isopropyl-5,6-dihydro-pyrrolo[3,4-d]pyrimidin-7-one] | 2110 |  | 
20 | CC[C@H](C)N1Cc2c(nc(N3CCN(C(C)=O)CC3)nc2N(C)Cc2cnc3ccccc3c2)C1=O [Example 319, 2-(4-acetylpiperazin-1-yl)-6-[(1S)-1-methylpropyl]-4-[methyl(quinolin-3-ylmethyl)amino]-5,6-dihydro-7H-pyrrolo[3,4-d]pyrimidin-7-one] |  | 47 | 53.6
21 | COc1cc(OC(F)(F)F)ccc1CNc1nc(N2CCN(C(C)=O)CC2)nc2c1CN(C(C)C)C2=O [Example 232, 2-(4-acetylpiperazin-1-yl)-6-isopropyl-4-(2-methoxy-4-(trifluoromethoxy)benzylamino)-5H-pyrrolo[3,4-d]pyrimidin-7(6H)-one] | 7840 |  | 
